Experimental data: patent publication EP1038864A1, “NOVEL METALLOPROTEINASE INHIBITORS” (FUJI YAKUHIN KOGYO KABUSHIKI KAISHA, priority 1997, dated 1999)

What follows are compounds tested against human fibroblast stromelysin (Homo sapiens, UniProt P08254) (assay: Assay for inhibition of stromelysin (fluorescein-labeled casein substrate)). Settings: not given.
Chain of human fibroblast stromelysin (P08254 100-477): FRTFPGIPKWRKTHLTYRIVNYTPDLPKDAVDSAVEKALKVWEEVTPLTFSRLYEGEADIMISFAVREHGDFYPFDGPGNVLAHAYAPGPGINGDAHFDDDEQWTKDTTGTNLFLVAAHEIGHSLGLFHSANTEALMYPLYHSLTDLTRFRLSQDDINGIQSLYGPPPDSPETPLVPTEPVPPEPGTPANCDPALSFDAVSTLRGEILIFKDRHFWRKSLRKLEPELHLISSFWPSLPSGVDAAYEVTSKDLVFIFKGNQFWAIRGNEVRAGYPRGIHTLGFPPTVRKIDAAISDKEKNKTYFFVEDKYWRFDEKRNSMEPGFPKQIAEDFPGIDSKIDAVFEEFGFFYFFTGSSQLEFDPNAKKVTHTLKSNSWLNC
Assay type: biochemical
Procedure: Described below are assays for biological activities of the compounds according to the present invention, formulations, dosage forms and dosage levels thereof, and miscellaneous matters. The efficacy of the compounds represented by the formula (I) according to the present invention as inhibitors of human fibroblast collagenase (metalloproteinase involved in the breakdown of tissues) is determined by a procedure based on the method of Y. Murawaki et al., Journal of Hepatology, 18, p328-334 (1993). The efficacy of the compounds (I) of this invention as inhibitors of human fibroblast stromelysin is determined by a procedure based on the method of S. S. Twining, Anal. Biochem., 143, p30 (1984). The assay results obtained are shown hereinbelow, together with biological examples which illustrate embodiments of the assay protocols.
The efficacy of compounds of the present invention to act as inhibitors of human fibroblast stromelysin was determined by the procedure of Twining (Anal. Biochem., 143, p.30, 1984), compared with a reference compound.
Prostromelysin was activated by incubation with 20 µg/ml human plasmin at 37°C for 2 hours, and the reaction was stopped by addition of 2.8 mg/ml aqueous diisopropyl fluorophosphate. The inhibition was assayed using, as a substrate, fluorescein-labeled casein. To a solution of the substrate (1 mg/ml) in a 50 mM Tris-HCl buffer, pH 7.8, containing 10mM aqueous calcium chloride was added the activated stromelysin. The resultant solution was incubated at 37°C for 2 hours. The digestion of the substrate with the enzyme was stopped by addition of 5% trichloroacetic acid. Undigested substrates were precipitated by centrifugation at 3000 x g for 20 minutes. The supernatant was collected, followd by additon of a 0.5M Tris-HCl buffer, pH 8.5. The fluorescence was read using an excitation wavelength of 495 nm and an emission wavelength of 520 nm. The inhibitory potency of the compounds was calculated. […] The resulting assay data for representative examples are shown in Table 2, compared with the reference compound.
CNC(=O)[C@H](CCCNC(=N)N)NC(=O)[C@H](CC(C)C)C(Cc1ccc(CNS(C)(=O)=O)cc1)C(=O)NO (single isomer, unassigned) [Compound No. 52, N^a-[4-(Hydroxyamino)-2(R)-isobutyl-3(R or S)-(p-methanesulfonamidomethylbenzyl)succinyl]-L-arginine N-methylamide· 1 acetate] gave an IC50 of 0.023 µM. In the case of CNC(=O)[C@H](CCCCN)NC(=O)[C@H](CC(C)C)C(CCCCCCCCO)C(=O)NO (single isomer, unassigned) [Compound No. 68, N^a-[4-(Hydroxyamino)-2(R)-isobutyl-3(R or S)-(8-hydroxyoctyl)-succinyl]-L-lysine N-methylamide· 1 acetate], the IC50 is reported as 0.014 µM. Compound CNC(=O)[C@H](CCCCN)NC(=O)[C@H](CC(C)C)C(CCOCC(C)C)C(=O)NO (single isomer, unassigned) [Compound No. 70, N^a-[4-(Hydroxyamino)-2(R)-isobutyl-3(R or S)-(2-isobutyloxyethyl)succinyl]-L-lysine N-methylamide· 1 acetate] has an IC50 of 0.028 µM. CNC(=O)C(CCNC(=N)N)NC(=O)C(CC(C)C)C(CCCc1ccccc1)C(=O)NO [Compound No. 26, N^4-[3-Guanidino-1(S)-methylcarbamoylpropyl]-N^1-hydroxy-3(R)-isobutyl-2-(RS)-(3-phenylpropyl)succinamide · 1 acetate] gave an IC50 of 0.04 µM.

Same assay, conditions: plasmin-activated human fibroblast prostromelysin, 37°C, 2 hours, pH 7.8; read-out: Inhibition of MMP-3
CC(C)CC(C(=O)NC(CCCN)C(=O)NC1CC1)C(C)C(=O)NO (single isomer, unassigned) [Compound No. 37, N^a-[4-(Hydroxyamino)-2(R)-isobutyl-3(R or S)-methylsuccinyl]-L-ornithine N-cyclopropylamide · 1 acetate] showed an IC50 of 0.05 µM. CC(C)CC(C(=O)NO)C(CC(C)C)C(=O)NC(Cc1ccc(CN)cc1)C(=O)NCCO [Compound No. 35, N^a-[4-(Hydroxyamino)-2(R),3(RS)-diisobutylsuccinyl]-4'-aminomethyl-L-phenylalanine N-(2-hydroxyethyl)amide · 1 acetate] showed an IC50 of 0.019 µM.

These compounds were tested against TNF-α Convertase (Homo sapiens, UniProt P78536) (assay: Assay for inhibition of TNF-α production in LPS-stimulated, PMA-differentiated U937 cells). Settings: not given.
Chain of TNF-α Convertase (P78536 215-824): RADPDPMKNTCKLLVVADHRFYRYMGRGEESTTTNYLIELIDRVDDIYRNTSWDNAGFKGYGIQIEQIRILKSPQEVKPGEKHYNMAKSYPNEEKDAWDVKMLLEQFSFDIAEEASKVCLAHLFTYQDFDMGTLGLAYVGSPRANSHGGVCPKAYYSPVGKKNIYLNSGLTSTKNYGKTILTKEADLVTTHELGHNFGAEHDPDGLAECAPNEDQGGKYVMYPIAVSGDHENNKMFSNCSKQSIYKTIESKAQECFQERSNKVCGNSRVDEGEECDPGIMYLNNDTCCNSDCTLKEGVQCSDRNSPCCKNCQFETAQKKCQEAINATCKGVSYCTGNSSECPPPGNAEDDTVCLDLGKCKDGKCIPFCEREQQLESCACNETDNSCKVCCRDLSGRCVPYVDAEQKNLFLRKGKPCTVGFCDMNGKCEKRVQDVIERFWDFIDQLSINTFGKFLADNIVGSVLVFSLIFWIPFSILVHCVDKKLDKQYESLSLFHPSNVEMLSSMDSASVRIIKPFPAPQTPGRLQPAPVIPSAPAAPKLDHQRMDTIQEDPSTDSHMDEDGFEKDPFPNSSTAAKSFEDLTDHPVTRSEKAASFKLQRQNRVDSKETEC
With CNC(=O)C(Cc1ccc(CN)cc1)NC(=O)C(CC(C)C)C(CCCc1ccccc1)C(=O)NO (single isomer, unassigned) [Compound No. 47, N^a-[4-(Hydroxyamino)-2(R)-isobutyl-3(R or S)-(3-phenylpropyl)succinyl]-4'-aminomethyl-L-phenylalanine N-methylamide · 1 acetate] the IC50 was 0.21 µM. With CNC(=O)C(CCCNC(=N)N)NC(=O)C(CC(C)C)C(CCCC1CCCCC1)C(=O)NO (single isomer, unassigned) [Compound No. 55, N^a-[4-(Hydroxyamino)-2(R)-isobutyl-3(R or S)-(3-cyclohexylpropyl)succinyl]-L-arginine N-methylamide · 1 acetate] the IC50 was 0.279 µM. CNC(=O)[C@H](C)NC(=O)[C@H](CC(C)C)C(CCCCCNC(C)=N)C(=O)NO (single isomer, unassigned) [Compound No. 62, N^a-[4-(Hydroxyamino)-2(R)-isobutyl-3(R or S)-[5-(acetimidoylimino)pentyl]succinyl]-L-alanine N-methylamide] was tested, and the IC50 was 2.89 µM. With CNC(=O)[C@H](CCCCN)NC(=O)[C@H](CC(C)C)C(CCCc1ccc(C(=O)OC)cc1)C(=O)NO (single isomer, unassigned) [Compound No. 65, N^a-[4-(Hydroxyamino)-2(R)-isobutyl-3(R or S)-[3-(p-methoxycarbonylphenyl)propyl]succinyl]-L-lysine N-methylamide· 1 acetate] the IC50 was 0.421 µM. Work on CNC(=O)[C@H](CCCCN)NC(=O)[C@H](CC(C)C)C(CCCc1ccc(C(=O)O)cc1)C(=O)NO (single isomer, unassigned) [Compound No. 67, N^a-[4-(Hydroxyamino)-2(R)-isobutyl-3(R or S)-[3-(p-carboxyphenyl)propyl]succinyl]-L-lysine N-methylamide] yielded an IC50 of 0.527 µM.
